One experiment has as its target T1, huSTING (WT) (Homo sapiens, UniProt Q86WV6, H232R).
T1 construct: made in house; host or cells: E. coli BL21 DE3
Briefly: Surface Plasmon Resonance (SPR) STING (WT). In kind it is binding. The following applies: biotinylated STING on streptavidin chip, 8° C.; 50% occupancy as surrogate KD. The text has this:
(§1) To determine binding affinities (50% occupancy as a surrogate Ko for the two binding events occurring) from dose-response experiments, binding responses at equilibrium were fit to a Hill equation, where the Hill coefficient was floated (52). For single-cycle kinetic experiments, sensorgrams were fit to a two-step kinetic model in which two analyte molecules bind sequentially (Biacore T200 or S200 Evaluation Software).

The target of a further experiment is T2, WT human STING isoform (Homo sapiens, UniProt Q86WV6, H232R).
T2 construct: host or cells: THP-1-Dual KI-hSTING-R232
Briefly: THP-1-Dual KI-hSTING-R232 reporter cell line assay. Format: cell-based. The conditions noted are these: 24 h incubation, QUANTI-Luc luminescence; normalised to 40 μM ML RR-S2 CDA; read-out: EC50 THP-1 Dual KI-hSTING-R232 cells. As for the experimental part:
(§2) THP-1 STING Lucia ISG cells (InvivoGen #thpl-isg) were cultured in RPMI-1640 containing 2 mM L-glutamine, 25 mM HEPES, 100 μg/mL Normocin (InvivoGen) and 10% heat-inactivated FBS. Cells were seeded at a density of 7×10^5 cells/mL, maintained at 37° C./5% CO2, and passaged every 3-4 days. Selection pressure was maintained by the addition of 100 μg/mL Zeocin every second passage.
(§3) Assay conditions: cells were harvested and resuspended at a concentration of 5×10^5 cells/mL in fresh growth media. Of this cell preparation 20 μL per well was dispensed into 384 well cell culture plates (Greiner, #781098X) and incubated at 37° C./5% CO2 for 2 hours.
(§4) Concentration Response Curves (commonly 11 doses) were prepared by 2.5 fold serial dilution starting from 10 mM compound stock solution in DMSO. Compound dilutions were transferred into the cell culture plates using a pintool (0.1 μL transfer), control wells were matched for DMSO. Positive control wells received ML RR-S2 CDA (Med Chem Express HY12885B) in 5 μL of media to a final concentration of 40 μM. All other wells received additional 5 μL of media only to equalise volume. The plates were incubated for 24 h at 37° C./5% CO2.
(§5) For the detection step, QUANTI-Luc (InvivoGen #rep-qlc1) was prepared according to manufacturer's instruction and 10 μL were added per well to the culture plates. Plates were shaken for ten seconds on an orbital shaker and left in the dark at room temperature for two minutes, before luminescence was read on a Perkin Elmer Envision plate reader.
(§6) Data analysis: Luminescence raw data was normalised % activity relative to the signal of the positive control wells and negative control wells which were not treated with compound. The following formula was used to calculate normalised % activity from raw signals: % activity=(sample−negative)/(positive−negative)
(§7) The THP-1 STING Lucia ISG cell EC50 provides an assessment of activity at the human HAQ isoform of STING. For assessing compound activity against the WT human STING isoform, an equivalent method was conducted where the cells used were THP-1-Dual KI-hSTING-R232 (InvivoGen #thpd-r232).

For a further experiment, the target named is T3, huSTING (HAQ) (Homo sapiens, UniProt Q86WV6, G230A/H232R/R293Q).
T3 construct: made in house; host or cells: E. coli BL21 DE3
Briefly: Surface Plasmon Resonance (SPR) STING (HAQ). In kind it is binding. The conditions noted are these: biotinylated STING on streptavidin chip, 8° C.; 50% occupancy as surrogate KD.
Source text: as §1

For experiment [1], the target named is T4, human HAQ isoform of STING (Homo sapiens, UniProt Q86WV6, G230A/H232R/R293Q/R71H).
T4 construct: host or cells: THP-1 STING Lucia ISG cells
Kind of experiment: THP-1 STING Lucia ISG reporter cell line assay. In kind it is cell-based. The conditions noted are these: 24 h incubation, QUANTI-Luc luminescence; normalised to 40 μM ML RR-S2 CDA; read-out: EC50 THP-1 STING Lucia ISG cells. As for the experimental part:
as §2, §3, §4, §5, §6, §7

Molecules are shown by their SMILES.

T1 sequence (Q86WV6 with tags, fused parts or gaps H232R): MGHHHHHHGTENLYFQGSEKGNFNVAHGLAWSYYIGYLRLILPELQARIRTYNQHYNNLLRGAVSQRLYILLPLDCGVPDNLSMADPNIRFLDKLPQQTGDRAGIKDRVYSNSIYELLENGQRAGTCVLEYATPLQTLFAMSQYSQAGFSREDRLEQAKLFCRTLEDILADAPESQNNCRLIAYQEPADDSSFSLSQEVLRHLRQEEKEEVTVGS
T4 sequence (Q86WV6 whole entry R71H/G230A/H232R/R293Q, canonical isoform): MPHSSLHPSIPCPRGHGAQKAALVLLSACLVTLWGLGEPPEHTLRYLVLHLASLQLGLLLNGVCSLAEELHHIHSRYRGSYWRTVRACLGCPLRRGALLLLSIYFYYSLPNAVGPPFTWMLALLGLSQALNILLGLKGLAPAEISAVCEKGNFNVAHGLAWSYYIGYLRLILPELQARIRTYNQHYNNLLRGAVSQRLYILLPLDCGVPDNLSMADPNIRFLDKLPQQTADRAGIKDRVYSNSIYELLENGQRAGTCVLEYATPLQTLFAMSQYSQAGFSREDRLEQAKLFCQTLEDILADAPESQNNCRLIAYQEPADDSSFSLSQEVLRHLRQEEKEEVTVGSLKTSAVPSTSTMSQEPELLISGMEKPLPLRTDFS
T2 sequence (Q86WV6 whole entry H232R, canonical isoform): as the sequence (Q86WV6 whole entry R71H/G230A/H232R/R293Q, canonical isoform) above, with H71R, A230G, Q293R counted along it
T3 sequence (Q86WV6 with tags, fused parts or gaps G230A/H232R/R293Q): as the sequence (Q86WV6 with tags, fused parts or gaps H232R) above, with G100A, R163Q counted along it

Broadly, the Kd is a measure of binding affinity in units of concentration. Read a high Kd as weaker binding. In general, EC50 refers to the midpoint of the concentration-response curve. For `COc1c(C(N)=O)ccc2[nH]c(-c3c(C(=O)O)sc4c(Br)cnc(OC)c34)nc12` [Example 17, 7-Bromo-3-(5-carbamoyl-4-methoxy-1H-benzo[d]imidazol-2-yl)-4-methoxythieno[3,2-c]pyridine-2-carboxylic acid], the Kd on huSTING (WT) stood at 19.1 µM; at huSTING (HAQ) it was 3.6 µM. Moreover, the EC50 (at WT human STING isoform; in experiment [1]) was above 40 µM each time.
